Read-outs that look alike come from different tables or passages of the source.
What was measured:
[1] = system: MDA-MB231 cells; test: In vitro assay 2: BCAT cellular assay, leucine in medium of MDA-MB231 cells; type: cell-based; conditions: 24 hours incubation, leucine level in medium (LeuDH/diaphorase/resazurin readout), read-out: MDAMB-231 IC50
Description: (§1) In Vitro Assay 2: BCAT Cellular Assay
(§2) Levels of leucine were measured in medium of different tumor cell lines. The enzyme BOAT (Branched chain amino acid transferase) catalyzes the consumption of leucine.
(§3) Cells (U87-MG and MDA-MB231 from ATCC) were grown in Dulbecco's Modified Eagle Medium (DMEM) containing 10% fetal calf serum. They were harvested by trypsin and seeded into 96-well plates. Cells were incubated overnight at 37° C. in an atmosphere containing 5% carbon dioxide. The next day test compounds were added to each cell well. The final concentration of dimethylsulfoxide (DMSO) was 0.1% and DMSO controls were included. The plates were then placed in an incubator for 24 hours.
(§4) Leucine was measured in an enzymatic readout with leucine dehydrogenase (LeuDH) and diaphorase. Medium is deproteinized with perchloric acid. 30 μl of 1 M aqueous perchloric acid was added to each well and the plates were centrifuged.

[2] = target: T1, recombinant human BCAT1 enzyme (Homo sapiens, UniProt P54687); test: In vitro assay 1a: BCAT1 biochemical assay (coupled LeuDH/NADH fluorescence readout)
T1 construct: purchased ATGen (South Korea) ATGP1479
T1 sequence (P54687 1-386): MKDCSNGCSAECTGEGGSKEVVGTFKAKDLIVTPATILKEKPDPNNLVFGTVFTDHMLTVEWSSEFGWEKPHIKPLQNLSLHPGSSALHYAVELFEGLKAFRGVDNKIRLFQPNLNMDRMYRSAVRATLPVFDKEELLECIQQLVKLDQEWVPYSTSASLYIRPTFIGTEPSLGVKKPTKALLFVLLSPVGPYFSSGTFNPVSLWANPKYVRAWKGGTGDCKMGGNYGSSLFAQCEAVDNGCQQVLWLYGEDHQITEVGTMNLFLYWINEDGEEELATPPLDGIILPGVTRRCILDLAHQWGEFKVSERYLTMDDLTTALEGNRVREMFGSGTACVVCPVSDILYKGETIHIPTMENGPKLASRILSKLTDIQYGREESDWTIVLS
Description: (§5) In Vitro Assay 1a and 1b: BCAT1 and BCAT2 Biochemical Assay
(§6) BOAT (Branched chain amino acid transferase) catalyzes transamination of the branched chain amino acid leucine to α-ketoisocaproate (KIC). The BOAT enzymatic reaction was measured in a coupled readout with leucine dehydrogenase (LeuDH) which catalyzes the Nicotinamide adenine dinucleotide (NADH) dependent reduction of KIC to leucine. NADH consumption is measured by fluorescent readout.
(§7) The biochemical reactions were performed at 32° C. in 384-well plates using a reaction volume of 51 μl and the following assay buffer conditions: 50 mM HEPES (2-[4-(2-hydroxyethyl)piperazin-1-yl]ethanesulfonic acid) pH 8.0, 50 mM aqueous solution of ammonium sulfate, 1 mM ethylenediaminetetraacetic acid, 2 mM dithiothreitol, 0.01% bovine serum albumine, 0.005% Brij 35 detergent, 0.5 μM PLP (pyridoxalphosphate), 10 μM NADH, and 50 μM α-ketoglutarate), and 100 μM leucine. […] Test compounds were used in a concentration range between 0.005 and 30 μM. The final DMSO concentration was 2%.
(§8) The reaction was initiated by addition of substrates (Leucine, α-KG, NADH).

[3] = system: U87-MG cells; test: In vitro assay 2: BCAT cellular assay, leucine in medium of U87-MG cells; type: cell-based; conditions: 24 hours incubation, leucine level in medium (LeuDH/diaphorase/resazurin readout)
Description: as §1, §2, §3, §4

[4] = target: T2, recombinant human BCAT2 enzyme (Homo sapiens, UniProt O15382); test: In vitro assay 1b: BCAT2 biochemical assay (coupled LeuDH/NADH fluorescence readout); on BCAT2 IC50 [M]: recombinant human BCAT2 0.75 nM
T2 construct: purchased ATGen (South Korea) ATGP1523
T2 sequence (O15382 28-392): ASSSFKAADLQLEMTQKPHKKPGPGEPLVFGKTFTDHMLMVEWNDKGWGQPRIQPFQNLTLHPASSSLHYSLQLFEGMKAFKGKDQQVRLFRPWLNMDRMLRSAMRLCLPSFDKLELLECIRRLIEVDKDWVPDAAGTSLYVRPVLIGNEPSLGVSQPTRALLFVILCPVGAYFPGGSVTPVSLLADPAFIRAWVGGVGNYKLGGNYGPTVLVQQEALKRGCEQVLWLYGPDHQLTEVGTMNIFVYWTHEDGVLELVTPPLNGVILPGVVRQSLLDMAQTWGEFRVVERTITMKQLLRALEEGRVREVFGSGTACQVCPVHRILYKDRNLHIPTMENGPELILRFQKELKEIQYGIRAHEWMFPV
Description: as §5, §6, §7, §8

[5] = recombinant human BCAT1 […], 32° C., 100 μM leucine, 50 μM α-ketoglutarate, NADH fluorescence over 90 min, read-out: BCAT1 IC50
[6] = recombinant human BCAT2 […], 32° C., 100 μM leucine, 50 μM α-ketoglutarate, NADH fluorescence over 90 min, read-out: BCAT2 IC50

Row | Compound | IC50 [1] [µM] | IC50 ([1]; Homo sapiens, MDA-MB-231, 24 h) [µM] | IC50 [2, 5] [M] | IC50 ([3]; Homo sapiens, U-87 MG, 24 h) [µM] | IC50 [4, 6] [M] | IC50 ([2]; BCAT1 IC50 [M]) [M] | IC50 [3] [µM] | IC50 ([4]; BCAT2 IC50 [M]) [M]
1 | Cc1cc(C#N)c(Oc2ccccc2Cl)cc1-n1c(=O)cc(C(F)(F)F)[nH]c1=O (racemic) [Example 10, 2-(2-Chlorophenoxy)-4-[2,6-dioxo-4-(trifluoromethyl)-3,6-dihydropyrimidin-1 (2H)-yl]-5-methylbenzonitrile (rac)] | > 30 | 30 | 3.9e-07 | 13 | 6e-06 |  |  | 
2 | COc1cc(C#N)c(Oc2ccccc2Cl)cc1-n1c(=O)cc(C(F)(F)F)[nH]c1=O (racemic) [Example 15, 2-(2-Chlorophenoxy)-4-[2,6-dioxo-4-(trifluoromethyl)-3,6-dihydropyrimidin-1(2H)-yl]-5-methoxybenzonitrile (rac)] |  | 17 | 1.48e-07 | 20 | 8.3e-07 |  |  | 
3 | COc1cc(Cl)c(Oc2ccccc2C)cc1-n1c(=O)cc(C(F)F)[nH]c1=O (racemic) [Example 28, 3-[4-Chloro-2-methoxy-5-(2-methylphenoxy)phenyl]-6-(difluoromethyl)pyrimidine-2,4(1H,3H)-dione (rac)] |  |  | 2.8e-07 | 6.2 | 3.5e-06 |  |  | 
4 | COc1cc(Cl)c(Oc2ccccc2Cl)cc1-n1c(=O)cc(C(F)(F)F)[nH]c1=O (racemic) [Example 50, 3-[4-Chloro-5-(2-chlorophenoxy)-2-methoxyphenyl]-6-(trifluoromethyl)pyrimidine-2,4(1H,3H)-dione (rac)] |  |  | 7.5e-07 | 3.6 | 5e-06 |  |  | 
5 | COc1cc(C#N)c(Oc2ccccc2C)cc1-n1c(=O)cc(C(N)=O)[nH]c1=O (racemic) [Example 73, 1-[4-Cyano-2-methoxy-5-(2-methylphenoxy)phenyl]-2,6-dioxo-1,2,3,6-tetrahydropyrimidine-4-carboxamide (rac)] |  |  | 9e-07 | > 30 | 5.9e-06 |  |  | 
6 | COc1cc(C#N)c(Oc2ccccc2C)cc1-n1c(=O)cc(C(F)(F)F)[nH]c1=O (single isomer, unassigned) [Example 5, 4-[2,6-Dioxo-4-(trifluoromethyl)-3,6-dihydropyrimidin-1(2H)-yl]-5-methoxy-2-(2-methylphenoxy)benzonitrile (atrop 1)] |  |  |  | 6 |  | 1.13e-07 |  | 
7 | Cc1ccccc1Oc1cc(-n2c(=O)cc(C(F)(F)F)[nH]c2=O)c(C)cc1C#N (single isomer, unassigned) [Example 8, 4-[2,6-Dioxo-4-(trifluoromethyl)-3,6-dihydropyrimidin-1 (2H)-yl]-5-methyl-2-(2-methylphenoxy)benzonitrile (atrop 1)] |  |  |  |  |  | 1.1e-06 | 6 | 9e-06
8 | Cc1ccccc1Oc1cc(-n2c(=O)cc(C(F)(F)F)[nH]c2=O)c(C)cc1C#N (single isomer, unassigned) [Example 9, 4-[2,6-Dioxo-4-(trifluoromethyl)-3,6-dihydropyrimidin-1(2H)-yl]-5-methyl-2-(2-methylphenoxy)benzonitrile (atrop 2)] |  |  |  |  |  | 8e-08 | 1.5 | 9e-07
9 | COc1cc(C#N)c(Oc2ccccc2Cl)cc1-n1c(=O)cc(C(F)(F)F)[nH]c1=O (single isomer, unassigned) [Example 16, 2-(2-Chlorophenoxy)-4-[2,6-dioxo-4-(trifluoromethyl)-3,6-dihydropyrimidin-1(2H)-yl]-5-methoxybenzonitrile (atrop 1)] |  | 10.8 | 1.5e-07 | 5.4 | 2.5e-06 |  |  | 
10 | COc1cc(C#N)c(Oc2ccccc2C)cc1-n1c(=O)cc(S(=O)(=O)c2ccccc2)[nH]c1=O (single isomer, unassigned) [Example 77, 4-[4-(Benzenesulfonyl)-2,6-dioxo-3,6-dihydropyrimidin-1(2H)-yl]-5-methoxy-2-(2-methylphenoxy)benzonitrile (atrop 1)] | 16 |  |  | 16.5 | 7.7e-07 |  |  | 
11 | COc1cc(C#N)c(Oc2ccccc2C)cc1-n1c(=O)cc(S(=O)(=O)c2ccccc2)[nH]c1=O (single isomer, unassigned) [Example 78, 4-[4-(Benzenesulfonyl)-2,6-dioxo-3,6-dihydropyrimidin-1(2H)-yl]-5-methoxy-2-(2-methylphenoxy)benzonitrile (atrop 2)] | 3.8 |  |  |  | 1.4e-07 |  | 12.5 | 
12 | Cc1ccccc1Oc1cc(-n2c(=O)cc(Br)[nH]c2=O)c(F)cc1C#N [Example 3, 4-(4-Bromo-2,6-dioxo-3,6-dihydropyrimidin-1(2H)-yl)-5-fluoro-2-(2-methylphenoxy)benzonitrile] |  | > 30 | 3.15e-07 | 11.1 | 5.5e-06 |  |  | 
13 | Cc1ccccc1Oc1cc(-n2c(=O)cc(C(F)(F)Cl)[nH]c2=O)c(F)cc1C#N [Example 40, 4-{4-[Chloro(difluoro)methyl]-2,6-dioxo-3,6-dihydropyrimidin-1(2H)-yl}-5-fluoro-2-(2-methylphenoxy)benzonitrile] |  | 12 | 4.45e-07 | 4.63 | 2.2e-06 |  |  | 
14 | N#Cc1ccc(-n2c(=O)cc(C(F)(F)F)[nH]c2=O)cc1Oc1ccccc1Cl [Example 46, 2-(2-Chlorophenoxy)-4-[2,6-dioxo-4-(trifluoromethyl)-3,6-dihydropyrimidin-1 (2H)-yl]benzonitrile] |  | > 30 | 6.75e-07 | 25 | 6e-06 |  |  | 
15 | Cc1ccccc1Oc1cc(-n2c(=O)cc(C(F)(F)C(F)(F)F)[nH]c2=O)c(F)cc1C#N [Example 52, 4-[2,6-dioxo-4-(pentafluoroethyl)-3,6-dihydropyrimidin-1(2H)-yl]-5-fluoro-2-(2-methylphenoxy)benzonitrile] |  | 30 | 1.35e-06 | 2.95 |  |  |  | 
16 | Cc1ccccc1Oc1cc(-n2c(=O)cc(-c3ccc(C(F)(F)F)cc3)[nH]c2=O)c(F)cc1C#N [Example 68, 4-{2,6-Dioxo-4-[4-(trifluoromethyl)phenyl]-3,6-dihydropyrimidin-1(2H)-yl}-5-fluoro-2-(2-methylphenoxy)benzonitrile] |  | 9 | 2.16e-06 | 7.5 |  |  |  | 
17 | Cc1ccccc1Oc1cc(-n2c(=O)cc(-c3cccc(Cl)c3)[nH]c2=O)c(F)cc1C#N [Example 70, 4-[4-(3-Chlorophenyl)-2,6-dioxo-3,6-dihydropyrimidin-1(2H)-yl]-5-fluoro-2-(2-methylphenoxy)benzonitrile] |  | > 30 | 1.33e-06 | 30 |  |  | > 30 | 
18 | Cc1ccccc1Oc1cc(-n2c(=O)cc(C(=O)NCC(F)(F)F)[nH]c2=O)c(F)cc1C#N [Example 71, 1-[4-Cyano-2-fluoro-5-(2-methylphenoxy)phenyl]-2,6-dioxo-N-(2,2,2-trifluoroethyl)-1,2,3,6-tetrahydropyrimidine-4-carboxamide] |  | > 30 | 1.75e-06 | > 30 |  |  |  | 

— patent US20220411381A1, “PYRIMIDINEDIONE DERIVATIVES” (Bayer Aktiengesellschaft, priority 2019, published 2022)
